Assay results taken from patent US10703798B2, “Methods of cancer therapy by inhibiting fusion polypeptides comprising fibroblast growth factor receptor 2 (FGFR2) and vinculin (VCL)” (DEBIOPHARM INTERNATIONAL SA, priority 2014, dated 2020).
pIC50: −log10 of the molar value. “Also recorded” adds a separate entry of the source. Read-outs that look alike come from different tables or passages of the source.

Experiments:
Rat2-FGFR2-CCDC147 tumor = assay: In vivo sensitivity, subcutaneously implanted Rat2-FGFR2-CCDC147 tumor model; parameters: species or system female NMRI nude mice; details: 30 and 60 mg/kg orally once daily for 14 consecutive days
Experimental: On Day 0, 5×10^6 FGFR2-CCDC147-expressing Rat2 cells in 100 μl PBS were subcutaneously implanted into the left flank of 5-6 week-old female NMRI nude mice (group size of 6 animals). […] Primary tumor sizes were measured twice weekly by calipering. Animals were terminated on last day of treatment and tumors weighed at necropsy.

[1] = system: FGFR2-VCL expressing Rat2 cells; assay: Cell proliferation assay using FACS, FGFR2-VCL expressing cells; type: cell-based, rat; details: 72 h with inhibitor, cells counted by FACS, read-out: Relative IC50
Experimental: (§1) At the end of the incubation period, cells were counted by FACS. IC50 values were calculated in Graphpad Prism 6 using sigmoidal response (variable slope) curve fit.

[2] = system: FGFR2-CCDC147 expressing Rat2 cells; assay: Cell proliferation assay using FACS, FGFR2-CCDC147 expressing cells; type: cell-based, rat; details: 72 h with inhibitor, cells counted by FACS, read-out: Relative IC50
Experimental: as §1

Rat2 parental cells [3] = details: read-out: Relative IC50, 72 h with inhibitor, cellular ATP content (Cell Titer Glo)
Experimental: (§2) Stable Rat2 cell pools stably expressing FGFR2-CCDC147 or FGFR2-VCL fusions, respectively, were generated using pExoIN2-based expression plasmids ExoIN2-FGFR2_CCDC147 and pExoIN2-FGFR2_VCL. pExoIN2 was obtained from Trenzyme, (Germany). The latter expression plasmids were introduced into Rat2 cells by electroporation (LONZA Nucleofector II Device/program [X-005], Solution R). 24 h post-transduction, cells were subjected to 1.5 µg/mL puromycin to derive stable expressor cell pools. The FGFR2-CCDC147 sequence used in this example was composed of SEQ ID NO: 16 for the FGFR2 part (nucleic acid 1 to nucleic acid 2574) and SEQ ID NO: 20 for the CCDC147 part (nucleic acid 156 to nucleic acid 3313). The FGFR2-VCL sequence used was composed of SEQ ID NO: 16 for the FGFR2 part (nucleic acid 1 to nucleic acid 2574) and SEQ ID NO: 18 for the VCL part (nucleic acid 2117 to nucleic acid 5482).
(§3) Rat2 cells obtained as per Example 4 (either parental cells or cells expressing FGFR2-VCL or FGFR2-CCDC147 fusion polypeptide) were used in this assay. Cells were seeded in 96 well plates and cultured for 24 h before addition of FGFR inhibitors (the same as in section (1) above). After 72 h of further incubation, cell growth was analyzed by determination of the cellular ATP content (Cell Titer Glo; Promega) using a luminescence plate reader.

Rat2-FGFR2-VCL tumor = assay: In vivo sensitivity, subcutaneously implanted Rat2-FGFR2-VCL tumor model; parameters: species or system female NMRI nude mice
Experimental: On Day 0, 1×10^6 FGFR2-VCL expressing Rat2 cells in 100 μl PBS were subcutaneously implanted into the left flank of 5-6 week-old female NMRI nude mice (group size of 6 animals).
Primary tumor sizes were measured twice weekly by calipering. Animals were terminated on last day of treatment and tumors weighed at necropsy.

[4] = system: FGFR2-CCDC147 expressing Rat2 cells; assay: Cell proliferation assay using Cell Titer Glo, FGFR2-CCDC147 expressing cells; type: cell-based, rat; details: 72 h with inhibitor, cellular ATP content (Cell Titer Glo), read-out: Relative IC50
Experimental: as §2, §3

Rat2 parental cells [5] = assay: Cell proliferation assay using FACS, parental cells; type: cell-based, rat; details: 72 h with inhibitor, cells counted by FACS, read-out: Relative IC50
Experimental: as §2

[6] = system: FGFR2-VCL expressing Rat2 cells; assay: Cell proliferation assay using Cell Titer Glo, FGFR2-VCL expressing cells; type: cell-based, rat; details: 72 h with inhibitor, cellular ATP content (Cell Titer Glo), read-out: Relative IC50
Experimental: as §2, §3

[7] = biological target: T1, FGFR2-VCL fusion polypeptide (Homo sapiens, UniProt P21802); assay: Autophosphorylation of FGFR2-VCL in transiently transfected HEK293T cells, sandwich phosphotyrosine ELISA; type: cell-based; details: FGFR2-VCL-expressing HEK293T cells, 1E-05 M, 90 min
T1 construct: VCL polypeptide part (fusion partner, same polypeptide); expressed in transfected cells; host or cells: HEK293T; the other entry of the earlier key: VCL (P18206, Vinculin)
Description: (§4) In this example, the following sequences were used: the FGFR2-CCDC147 fusion gene was composed of SEQ ID NO: 16 for the FGFR2 part (nucleic acid 1 to nucleic acid 2574) and SEQ ID NO: 20 for the CCDC147 part (nucleic acid 156 to nucleic acid 3313); and the FGFR2-VCL fusion gene was composed of SEQ ID NO: 16 for the FGFR2 part (nucleic acid 1 to nucleic acid 2574) and SEQ ID NO: 18 for the VCL part (nucleic acid 2117 to nucleic acid 5482).
(§5) After treatment, autophosphorylation of the FGFR2 fusion polypeptides was analysed using a sandwich phosphotyrosine ELISA. Each condition was done in duplicates.

[8] = biological target: T1, FGFR2-VCL fusion polypeptide; assay: Autophosphorylation of FGFR2-VCL in transiently transfected HEK293T cells, Western blot; type: cell-based; details: FGFR2-VCL-expressing HEK293T cells, 1E-05 M, 90 min
Description: as §4
(§6) HEK293T cells were transiently transfected with expression plasmids containing either an FGFR2-VCL or an FGFR2-CCDC147 fusion gene, which genes had been supplemented with a C-terminal double myc-tag extension. As a negative control, HEK293T cells were mock-transfected. […] The expression of myc-tagged fusion polypeptide was determined using the anti-myc antibody 9E10 (α-myc), and the phosphorylation analysis was performed with the anti-phospho-tyrosine antibody pY99 (α-pY).

[9] = biological target: T2, FGFR2-CCDC147 fusion polypeptide (Homo sapiens, UniProt P21802); assay: Autophosphorylation of FGFR2-CCDC147 in transiently transfected HEK293T cells, sandwich phosphotyrosine ELISA; type: cell-based; details: FGFR2-CCDC147-expressing HEK293T cells, 1E-05 M, 90 min
T2 construct: CCDC147 (CFAP58) polypeptide part (fusion partner, same polypeptide); expressed in transfected cells; host or cells: HEK293T; the other entry of the earlier key: CFAP58 (Q5T655, Cilia- and flagella-associated protein 58)
Description: as §4, §5

[10] = biological target: T2, FGFR2-CCDC147 fusion polypeptide; assay: Autophosphorylation of FGFR2-CCDC147 in transiently transfected HEK293T cells, Western blot; type: cell-based; details: FGFR2-CCDC147-expressing HEK293T cells, 1E-05 M, 90 min
Description: as §4, §6

T1 sequence (P21802 with tags, fused parts or gaps): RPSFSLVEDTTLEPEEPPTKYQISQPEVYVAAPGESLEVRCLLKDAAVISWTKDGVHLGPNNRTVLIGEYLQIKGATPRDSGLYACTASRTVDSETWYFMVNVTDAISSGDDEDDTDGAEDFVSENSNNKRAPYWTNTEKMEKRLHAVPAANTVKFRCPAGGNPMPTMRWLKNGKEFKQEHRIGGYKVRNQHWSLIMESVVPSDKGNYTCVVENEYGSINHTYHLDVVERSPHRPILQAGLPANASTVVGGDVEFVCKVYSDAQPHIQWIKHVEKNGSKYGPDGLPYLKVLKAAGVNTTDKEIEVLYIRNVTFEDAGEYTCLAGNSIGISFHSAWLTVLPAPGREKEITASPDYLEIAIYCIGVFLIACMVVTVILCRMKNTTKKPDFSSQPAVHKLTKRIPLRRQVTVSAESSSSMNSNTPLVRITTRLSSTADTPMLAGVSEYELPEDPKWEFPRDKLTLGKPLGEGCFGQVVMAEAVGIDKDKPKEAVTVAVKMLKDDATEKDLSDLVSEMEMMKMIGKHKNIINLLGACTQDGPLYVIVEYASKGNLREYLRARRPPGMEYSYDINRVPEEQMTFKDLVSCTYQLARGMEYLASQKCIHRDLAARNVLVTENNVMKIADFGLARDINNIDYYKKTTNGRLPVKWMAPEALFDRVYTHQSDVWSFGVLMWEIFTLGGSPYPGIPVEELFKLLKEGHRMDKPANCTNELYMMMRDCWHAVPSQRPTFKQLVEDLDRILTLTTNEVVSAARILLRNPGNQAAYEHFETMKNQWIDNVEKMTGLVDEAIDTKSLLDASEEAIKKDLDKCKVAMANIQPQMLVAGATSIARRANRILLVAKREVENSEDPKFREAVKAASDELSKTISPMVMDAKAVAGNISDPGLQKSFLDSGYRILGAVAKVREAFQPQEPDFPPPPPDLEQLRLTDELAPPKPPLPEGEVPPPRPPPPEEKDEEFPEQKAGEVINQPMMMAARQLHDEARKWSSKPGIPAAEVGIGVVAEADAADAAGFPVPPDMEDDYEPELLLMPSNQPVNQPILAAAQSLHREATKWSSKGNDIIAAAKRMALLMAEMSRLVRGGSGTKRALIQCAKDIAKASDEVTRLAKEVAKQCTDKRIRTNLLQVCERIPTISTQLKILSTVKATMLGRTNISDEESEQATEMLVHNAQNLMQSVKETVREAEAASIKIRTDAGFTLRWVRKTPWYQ
T2 sequence (P21802 with tags, fused parts or gaps): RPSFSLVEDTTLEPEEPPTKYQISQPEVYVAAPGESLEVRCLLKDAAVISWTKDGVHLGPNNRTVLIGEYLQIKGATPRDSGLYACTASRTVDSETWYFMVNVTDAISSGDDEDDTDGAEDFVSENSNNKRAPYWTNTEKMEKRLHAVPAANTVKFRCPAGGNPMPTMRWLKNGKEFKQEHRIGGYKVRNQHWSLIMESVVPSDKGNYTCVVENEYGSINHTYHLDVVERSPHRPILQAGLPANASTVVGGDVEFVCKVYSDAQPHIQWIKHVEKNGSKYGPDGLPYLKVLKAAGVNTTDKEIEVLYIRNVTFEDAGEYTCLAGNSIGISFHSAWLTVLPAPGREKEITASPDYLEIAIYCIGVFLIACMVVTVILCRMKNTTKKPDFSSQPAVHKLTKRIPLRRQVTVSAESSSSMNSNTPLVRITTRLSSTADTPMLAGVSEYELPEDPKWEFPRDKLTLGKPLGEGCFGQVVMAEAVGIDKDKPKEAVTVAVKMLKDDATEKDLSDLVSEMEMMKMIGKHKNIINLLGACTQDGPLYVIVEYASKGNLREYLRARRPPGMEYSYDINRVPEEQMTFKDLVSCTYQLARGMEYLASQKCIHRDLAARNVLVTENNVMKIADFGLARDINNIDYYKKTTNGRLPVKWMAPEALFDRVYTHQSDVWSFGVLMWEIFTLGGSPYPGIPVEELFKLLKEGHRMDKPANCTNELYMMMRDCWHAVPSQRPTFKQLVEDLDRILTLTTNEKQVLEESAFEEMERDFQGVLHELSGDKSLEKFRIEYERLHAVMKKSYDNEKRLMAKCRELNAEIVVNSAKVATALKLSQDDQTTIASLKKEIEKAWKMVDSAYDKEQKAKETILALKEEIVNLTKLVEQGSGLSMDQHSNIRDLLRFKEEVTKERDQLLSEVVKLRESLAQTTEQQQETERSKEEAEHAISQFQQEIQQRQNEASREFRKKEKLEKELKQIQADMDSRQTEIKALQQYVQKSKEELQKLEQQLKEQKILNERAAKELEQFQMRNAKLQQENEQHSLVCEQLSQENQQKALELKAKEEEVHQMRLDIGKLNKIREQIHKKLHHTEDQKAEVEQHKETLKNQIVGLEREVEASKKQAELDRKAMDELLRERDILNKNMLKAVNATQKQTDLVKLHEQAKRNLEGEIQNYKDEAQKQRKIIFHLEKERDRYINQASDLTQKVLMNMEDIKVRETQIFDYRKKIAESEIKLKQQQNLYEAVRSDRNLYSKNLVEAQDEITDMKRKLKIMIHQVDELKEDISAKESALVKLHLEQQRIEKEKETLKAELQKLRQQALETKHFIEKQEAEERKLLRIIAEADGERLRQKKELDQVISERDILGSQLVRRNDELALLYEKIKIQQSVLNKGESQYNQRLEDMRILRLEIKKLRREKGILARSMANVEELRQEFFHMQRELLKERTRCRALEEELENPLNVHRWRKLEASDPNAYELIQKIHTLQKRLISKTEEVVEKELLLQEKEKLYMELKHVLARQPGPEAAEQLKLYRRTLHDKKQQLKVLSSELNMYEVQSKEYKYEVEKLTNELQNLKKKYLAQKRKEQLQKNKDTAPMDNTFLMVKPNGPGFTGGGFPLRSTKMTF

Structure (SMILES)	effect on body weight (Rat2-FGFR2-CCDC147 tumor)	antitumor efficacy (tumor growth) (Rat2-FGFR2-CCDC147 tumor; established tumors)	pIC50 [1]	pIC50 [2]	pIC50 (Rat2 parental cells [3])	antitumor efficacy (tumor growth) (Rat2-FGFR2-VCL tumor; 60 mg/kg-treated group, orally once daily for 14 consecutive days)	antitumor efficacy (tumor growth) (Rat2-FGFR2-VCL tumor; 30 and 60 mg/kg orally once daily for 14 consecutive days, established tumors)	effect on body weight (Rat2-FGFR2-VCL tumor; 30 or 60 mg/kg orally once daily for 14 consecutive days)	pIC50 [4]	pIC50 (Rat2 parental cells [5])	pIC50 [6]	levels of FGFR phosphorylation (phosphotyrosine ELISA) [7]	autophosphorylation of fusion polypeptide (anti-phospho-tyrosine Western blot) [8]	levels of FGFR phosphorylation (phosphotyrosine ELISA) [9]	autophosphorylation of fusion polypeptide (anti-phospho-tyrosine Western blot) [10]
Cc1nc2cc(-n3ncc(C(=O)c4cc5ccccc5[nH]4)c3N)ccc2[nH]1 [Compound A]	no significant effect	inhibited tumor growth; also recorded: highly significant antitumoral efficacy	6.64	7.83	< 5.52	Tumor stasis	inhibited tumor growth; also recorded: highly significant and dose-dependent antitumoral efficacy	without significantly affecting body weight	7.13	< 5.99	9.28				
COC(=O)c1ccc2c(c1)NC(=O)/C2=C(\Nc1ccc(N(C)C(=O)CN2CCN(C)CC2)cc1)c1ccccc1 [Vargatef]												decreased	substantially reduced	decreased	somewhat more marginally
